Reference: patent publication US8822705B2, “Pharmaceutical composition for preventing and/or treating bone disease, functional food or health food and pharmaceutical preparation comprising thereof as active ingredient” (priority 2006, dated 2014)
“Also recorded” adds a separate entry of the source.

How the values were obtained:
[1] = test system: MC3T3-E1 cells; assay: Osteoblast differentiation, ALP activity in MC3T3-E1 cells; format: cell-based, mouse; settings: incubated 7 to 21 days with test sample, absorbance at 405 nm, FIGS. 1A to 1D
Protocol: (§1) MC3T3-E1 cells, pre-osteoblast cells, were suspended in α-MEM and plated in each well of the 96 well-microplate with 4×10^3 cells/well. Then, they were pre-incubated for 2 days at 37° C., 5% CO2 incubator. On day 3 from the beginning of the pre-incubation, culture medium in the wells were changed to α-MEM containing each concentration of test sample, 50 μg/mL of ascorbic acid and 10 mM β-glycerophosphoric acid, and then incubated for 7 to 21 days. In the incubation, the culture medium in the wells was exchanged in every 3 or 4 days.
After the incubation period, the cells were fixed by using methanol. After drying the dish, activity of alkaline phosphatase (ALP), a marker enzyme of early stage osteoblast differentiation, was measured, and subjected to ALP staining.
In the measurement of ALP activity, a buffer containing 6.7 mM p-nitrophenylphosphate as a substrate, supplemented 2 mM magnesium chloride and 100 mM tris-HCl, pH 8.5. 100 μL of the buffer was plated in each well, incubated in 30 minutes at 37° C. Then, 100 μl of 0.1 N sodium hydroxide was added to the wells to terminate the reaction. After that, the absorbance at 405 nm was measured by using the plate reader and the absorbance value was used as ALP activity.
In ALP staining, the buffer containing 0.1 mg/ml naphtol AS-MX phosphate, 0.6 mg/ml fast blue BB salt, supplemented 2 mM magnesium chloride and 10 mM tris-HCl pH 8.5 was used. 50 μL of the buffer was added to each well of the 96 well-microplate and incubated for 30 minutes to 1 hour to stain.

[2] = test system: MC3T3-E1 cells; assay: Cytotoxicity by Cell Counting kit-8 or MTT (total cell numbers); format: cell-based, mouse; settings: for cell number decreasing (cytotoxicity): by 30 μM
Protocol: After incubation of the same condition as described above, cytotoxicity was measured by using the Cell counting kit-8 or MTT according to the conventional method.
Cytotoxicity was measured by using Cell Counting kit-8 or MTT according to conventional method, after MC3T3-E1 was incubated in the same conditions as (2) described above.

[3] = test system: MC3T3-E1 cells; assay: Calcification of calcium by osteoblast, Alizarin red S staining; format: cell-based, mouse
Protocol: as §1
Calcification of osteoblast cells were confirmed by Alizarin red S staining.
Effects of the above-mentioned four compounds and glycosides to the calcification of calcium by osteoblast were shown in FIG. 5.

[4] = test system: excised first molar of C57BL/6 mice grafted under capsule of kidney; assay: Graft culture of excised tooth with impregnated agarose beads under kidney capsule, alveolar bone formation; format: in vivo, mouse; settings: three agarose beads impregnated in 100 μM acerogenin A embedded into dental pulp, 3 weeks graft culture, compared to D-PBS bead negative control; FIG. 4B
Protocol: Agarose beads impregnated in acerogenin A (hereinbelow, it is referred to as “acerogenin A-impregnated beads”) were prepared as follows. acerogenin A was diluted to 100 μM (at final concentration) by using D-PBS. Affi-Gel agarose beads were washed by using PBS. Washed agarose beads were placed in the 1.5 mL Eppendorf tube with flat bottom and 100 μL of the acerogenin A solution was added into it. Then, the tube was incubated at room temperature for 45 minutes to impregnated acerogenin A into the agarose beads. Acerogenin-impregnated agarose beads obtained were used for embedding under dental pulp in below.
Alternatively, as negative control, agarose beads similarly to prepare the acerogenin A-impregnated beads but impregnated in D-PBS without acerogenin A (hereinbelow, it is referred to as “D-PBS-impregnated beads”) were used.
Five days age of […] mice, where their dental roots-periodontal tissue was just before formed, were anesthetized and sacrificed by decapitation. After excised lower jaw of them, the first molars in the lower jaw were excised with dental follicles. For the test group, three acerogenin A-impregnated agarose beads were embedded into the dental pulp of the excised teeth, the first molar in the lower jaw. […]

Row | SMILES | ALP activity (early stage osteoblast differentiation) [1] | cell numbers (cytotoxicity) ([2]; FIGS. 2A and C) | cell numbers (cytotoxicity) at high concentration ([2]; FIGS. 2A and C) | calcification activity level of calcium, rank order [3] | alveolar bone formation of grafted tooth [4] | cell number decreasing (cytotoxicity) ([2]; FIGS. 2B and D) | cell numbers (cytotoxicity) ([2]; by 100 μM, FIGS. 2B and D)
1 | Oc1ccc2cc1Oc1ccc(cc1)CC[C@H](O)CCCC2 [acerogenin A, 2-Oxatricyclo[13.2.2.13,7]eicosa-3,5,7 (20),15,17,18-hexaene-4,12-diol, (12R)-(9CI)] | enhanced ALP activity | not affected | slightly decreased | (R)-acerogenin B>aceroside I≅acerogenin A>aceroside B1 | prominent extension of alveolar bone formation | – | –
2 | OC[C@H]1O[C@@H](Oc2ccc3cc2Oc2ccc(cc2)CCCC[C@@H](O)CC3)[C@H](O)[C@@H](O)[C@@H]1O [aceroside B1, α-D-Glucopyranoside,(10R)-10-hydroxy-2-oxatricyclo[13.2.2.13,7]eicosa-3,5,7(20),15,17,18-hexaen-4-yl (9CI)] | enhanced ALP activity | – | – | (R)-acerogenin B>aceroside I≅acerogenin A>aceroside B1 | – | not observed | not affected
3 | Oc1ccc2cc1Oc1ccc(cc1)CCCC[C@@H](O)CC2 [(R)-acerogenin B, 2-Oxatricyclo[13.2.2.13,7]eicosa-3,5,7(20),15,17,18-hexaene-4,10-diol, (10R)-(9CI)] | enhanced ALP activity | – | – | (R)-acerogenin B>aceroside I≅acerogenin A>aceroside B1 | – | not observed | not affected
4 | OC[C@H]1O[C@H](Oc2ccc3cc2Oc2ccc(cc2)CC[C@@H](O)CCCC3)[C@H](O)[C@@H](O)[C@@H]1O [aceroside I, α-D-Glucopyranoside, (12S)-12-hydroxy-2-oxatricyclo[13.2.2.13,7]eicosa-3,5,7(20),15,17,18-hexaen-4-yl (9CI)] | enhanced ALP activity; also recorded: dose-dependently enhanced | not affected | slightly decreased | (R)-acerogenin B>aceroside I≅acerogenin A>aceroside B1 | – | – | –
